Test system: splenocytes (IFN y activated T cells)
Assay: Immunogenicity assay: peptide vaccination and interferon gamma ELispot of splenocytes
Assay type: in vivo
Settings: Balb/c mice vaccinated day 0 and 7, 50 μg/peptide with polyIC and anti-CD40; splenocytes restimulated at 15 μg/ml
Method: Groups of 8 week old Balb/c mice (Charles River) were vaccinated i.v with the indicated peptide mix (Table 2), (50 μg/peptide (GenScript)) with 30 μg polyIC and 25 μg anti-CD40 mAb). As a positive control AH peptide (SPSYVYHQF SEQ ID NO: 156) vaccination was used (Huang et al., 1996). Vehicle-only mice were vaccinated with DMSO/PBS plus adjuvants as above. Mice were boosted i.v. 7 days later with the same formulation. Mice were culled 7 days post-boost and their spleens removed (4 mice per group). All animals were housed in specific pathogen-free conditions at the Biomedical Services Building (University of Oxford). All work was performed under UK Home Office license PPL PP3430109 in accordance with the UK Animal (Scientific Procedures) Act 1986. All work was performed by trained and licensed individuals.
The day before culling, Merk Multiscreen 96 well Filter Plates (Merck) were incubated with primary antibody (anti-mouse INFy mAb clone AN18, Mabtech) diluted in sterile PBS (Gibco), at 4° C. […] The splenocyte pellet was resuspended in 5 ml R10, counted and the cell concentration adjusted to 4×10^5/ml. […] The spots were quantitated on an ELISPOT counter (AID, Germany).

SPSYVYHQF (AH1 peptide) [AHI1] was tested, and the “immunogenicity (IFN y activated T cells, ELISpot)” value was “positive immunogenic control”.
